Experimental data reported in patent US11234982B2, “Methods for treating ocular surface pain” (NOVARTIS AG, priority 2019, dated 2022).
Entries after “also recorded” stand apart in the source; their conditions may differ.

What was measured:
Type in all cases: in vivo, human
[1] = test system: patients undergoing photorefractive keratectomy (PRK) surgery; test: PRK study: Ocular Pain Assessment Survey (OPAS)
Description: (§1) The study was a proof of concept, double-masked, randomized, vehicle-controlled study of compound I administered as eye drops in addition to standard of care treatment in patients after PRK surgery. PRK surgery was performed as an outpatient procedure under topical anesthesia with removal of the corneal epithelium to expose the stroma for the laser ablation. Compound I dosing was as single eye drop of 2.5% (25 mg/ml, 0.925 mg/drop), administered four times daily (every six hours) in one eye from immediate post-op (time 0) to last dose at 72 hours.
The OPAS is a validated instrument for quantifying and monitoring corneal and ocular surface pain and quality of life, developed in response to an identified need from a National Eye Institute Workshop in 2010. See Qazi et al., Ophthalmology July 123(7):1458-1468 (2016). The rating scale of the overall pain severity in the OPAS from Qazi et al. rated from 0 (no pain) to 10 (severe pain) or for frequency of symptoms from 0% (never) to 100% (all the time), as per the survey. The patients were asked to fill out the OPAS survey/questionnaire at Day 2, Day 4 (at the end of treatment period with study drug) and Day 8. Statistical analysis of OPAS results was not performed.

[2] = test system: patients undergoing photorefractive keratectomy (PRK) surgery; test: PRK study: ocular safety assessments and vital signs
Description: as §1
Adverse events and serious adverse events included an assessment of both systemic and ocular assessments. Systemic safety assessments included regular assessments of height and weight, vital signs, reporting medication errors including misuse/abuse, pregnancy reporting and early phase safety monitoring. The misuse/abuse, pregnancy reporting and early phase safety monitoring were not assessed for the study. Ocular safety assessments included the following: • Best-corrected visual acuity (BCVA) and uncorrected visual acuity (UCVA): Was measured at each visit using an ETDRS visual acuity chart at 4 meters (13 feet) or 1 meter (for patients that cannot read the 4 meter chart). The BCVA scoring was done based on the number of correctly read letters plus 30. If visual acuity was so poor that the patient could not read any of the largest letters at 1 meter, count fingers and hand movement vision and light perception was tested. • Intraocular Pressure (TOP): IOP measurements were conducted with applanation tonometry or Tonopen. • Dilated fundus exam: The dilated fundus examination included ophthalmoscopic assessments of the vitreous, retina/macula/choroid, and optic nerve. Evaluations for retinal tear/detachment, retinal hemorrhage, vitreous hemorrhage density, vitreous haze grading and abnormal findings were done and scored according to grading criteria. • Ocular hyperemia: Conjunctival redness of the bulbar conjunctiva in each eye at the slit lamp according to the McMonnies redness scale was graded. […] By adjusting the calibrated slit beam width and height, the maximum horizontal (wound width) and vertical dimensions (wound height) of the surgical epithelial wound was estimated. The evaluation was performed until wound closure and report of wound size as 0 horizontal and 0 vertical dimensions. • Slit-lamp biomicroscopy: Ocular signs (eyelids/conjunctiva, cornea, lens, and iris/anterior chamber) was assessed in both eyes by slit lamp biomicroscopy according to the grading criteria. • Blink rate: A blink was defined as a bilateral paroxysmal closure of the eyelids (duration<1 second) in the absence of a provoking external stimulus. Each blink assessment lasted for 2 min (or as close to 2 minutes as possible with minimum time 1 minute) and the obtained blink rate was averaged to calculate blink rate in blinks/min. • Tear production (Schirmer's test without anesthesia): The test was performed without anesthetic in both eyes simultaneously. Tear secretion was measured in millimeters of the length of strip wetted by tears. […] The strip was wetted with 1 drop of sterile saline and flicked to remove excess saline. The patient blinked several times to ensure dispersion of the dye throughout the tear film prior to grading on a scale of 0-3 (0=Normal, No staining; 1=Mild, Superficial stippling micropunctate staining; 2=Moderate, Macropunctate staining with some coalescent areas and 3=Severe, Numerous coalescent macropunctate areas and/or patches) for each of 5 zones (central plus 4 quadrants).

cornea = test: Esthesiometry assessment (Part 3): corneal sensitivity, anesthetic effect; settings: for Anesthetic effect on the cornea (esthesiometry): single eye drop: tetracaine 0.5%, diclofenac 0.1%
Source text: Part 3 was an esthesiometry assessment to evaluate the anesthetic properties of compound I. Part 3 of the study had four arms, with compound I, vehicle, tetracaine (0.5% ophthalmic solution, used as a positive control) and diclofenac sodium (0.1% ophthalmic solution, used as the active NSAID comparator). Ocular anesthetic was selected because of its established anesthetic effect; however it is not the standard of care due to its negative effect on wound healing. NSAID is the current standard of care for corneal pain after PRK with minimal anesthetic but significant pain control properties. Vehicle eye drops were used as a negative control to enable better determination of the potential anesthetic effect. Twelve healthy subjects, who met the eligibility criteria, were randomized to receive a single eye drop of 4 study treatments, each during 1 of 4 different study days (Days 1, 4, 7 and 10). Each subject was randomized to receive the study treatment according to one of the following four sequences: • Sequence 1: Anesthetic, NSAID, compound I 2.5%, Vehicle • Sequence 2: NSAID, Vehicle, Anesthetic, compound I 2.5% • Sequence 3: Vehicle, compound I 2.5%, NSAID, Anesthetic • Sequence 4: compound I 2.5%, Anesthetic, Vehicle, NSAID
Inclusion Criteria: • Written informed consent was obtained before any assessment was performed. • Healthy male and female subjects aged 18 to 50 years (inclusive), and in good health as determined by past medical history, physical examination, vital signs, ECG, and laboratory tests at Screening. • At Screening, and Baseline, vital signs (systolic and diastolic blood pressure (BP) and pulse rate) were assessed in the sitting position after the subject had rested for at least 3 minutes and again after 3 minutes in the standing position. […] BMI=Body weight (kg)/[Height (m)]^2 • Subjects who were able to communicate well with the Investigator, to understand and comply with the requirements of the study. • For Part 3, subjects Baseline levels of eye sensitivity were to be in the range of 50 to 60 mm (inclusive) as measured by the Cochet-Bonnet esthesiometer.
The first-in-human study further evaluated potential anesthetic effect of topical ocular 2.5% compound I by esthesiometry testing, i.e. measurement of the filament length (cm) when the threshold of cornea touch is perceived.

[3] = across the scheduled time points

Q: For CC(C)c1nc2cc(O)ccc2c(=O)n1-c1ccc(C#N)cc1 [Compound I, 4-(7-hydroxy-2-isopropyl-4-oxo-4H-quinazolin-3-yl)-benzonitrile], which “OPAS questions 4, 5, 6: eye pain intensity during the previous 24 hours (most painful, least painful, average)” value ([1]; Day 2, compared to Vehicle, no statistical analysis) is on record?
A: Its value is “all 3 answers numerically favored compound I”.

Q: What about the “OPAS questions 22-25: how often eye pain associated with redness, burning, sensitivity to light, tearing” value ([1]; compared to Vehicle, no statistical analysis) of the same molecule?
A: Its value is “all answers favored compound I”.

Q: And the “OPAS: pain control and quality of life, compound I vs. Vehicle treatment period” value ([1]; in vivo)?
A: The value was “better pain control and quality of life”.

Q: What about the “Ocular hyperemia (McMonnies scale) grade 4, compound I vs Vehicle treated eyes” value ([2]; Day 2 postoperatively (24 hours after PRK surgery)) of the same molecule?
A: Its value is “less grade 4 hyperemia (all quadrants); also recorded: Fewer compound I-treated eyes showed severe conjunctival hyperemia”.

Q: And the “Ocular hyperemia (McMonnies scale) grade 3, compound I vs Vehicle treated eyes” value ([2]; Day 3 (48 hours post-operative))?
A: The value was “less grade 3 hyperemia”.

Q: What about the Dilated fundus exam [2, 3] of the same molecule?
A: The Dilated fundus exam was “No abnormal findings”.

Q: And the “Slit-lamp biomicroscopy: aqueous flare and inflammatory cell grade, iris/anterior chamber, lens” value [2, 3]?
A: The value was “No abnormalities were observed”.

Q: And the “Changes in BCVA, IOP, slit-lamp biomicroscopy, dilated eye exam, blink rate, tear production, corneal staining, vital signs compared to Vehicle” value ([2]; after compound I administration)?
A: Its value is “no clinically relevant changes”.

Q: What about the “Vital sign parameters (blood pressures, pulse rate, body temperature)” value ([2]; all patients during the study) of the same molecule?
A: The value was “within the normal range”.

Q: What about the “Increase in mean IOP values compared to Baseline” value ([2]; at the end of study) of the same molecule?
A: The value was under 5 mmHg.

Q: And the “Corneal staining, compound I versus Vehicle” value ([2]; baseline, Day 8, EOS visit)?
A: The value was “No clinical differences were observed”.

Q: And the “Best-corrected visual acuity (BCVA) and uncorrected visual acuity (UCVA), compound I vs Vehicle-treated eyes” value ([2]; throughout the study)?
A: Its value is “did not result in any trend or obvious difference”.

Q: And the “Blink rate, compound I vs Vehicle treatment” value ([2]; throughout the study)?
A: The value was “no trend across the scheduled time points or obvious differences”.

Q: What about the “Intraocular pressure, compound I vs Vehicle-treated eyes” value ([2]; throughout the study) of the same molecule?
A: Its value is “No trend across the scheduled time points or obvious differences”.

Q: And the “Corneal sensitivity, least squares means, Test vs Ref: vs Tetracaine 0.5%” value (cornea; Compound I 2.5% (N=11) vs Tetracaine 0.5% (N=12) at 2.5 and 10 minutes post-dose)?
A: The value was “statistical and clinical significance were observed”.

Q: And the “Difference in corneal sensitivity vs vehicle” value (cornea; compound I 2.5%, time points up to 30 minutes post-dose)?
A: Its value is “No difference”.

Q: And the “Anesthetic effect on the cornea (esthesiometry)” value (cornea; compound I 2.5%)?
A: Its value is “no anesthetic effect at any time point”.

Q: What about the “Anesthetic effect on the cornea (esthesiometry)” value (cornea; compound I 2.5%, listed as compound I) of the same molecule?
A: The value was “lack of anesthetic effect”.
